{"source": "patent US11413289B2", "about": "(Aerovate Therapeutics, Inc., priority 2019, dated 2022)", "data": [{"assay": "Thermal stability and polymorphism of imatinib salts", "format": "physicochemical", "values": [{"compound": "O=S(=O)(O)CCO", "note": "[isethionate]", "thermal stability and polymorphic forms": "suitable thermal stability and few or single polymorphic forms"}, {"compound": "malate", "thermal stability and polymorphic forms": "suitable thermal stability and few or single polymorphic forms"}, {"compound": "malonate", "thermal stability and polymorphic forms": "suitable thermal stability and few or single polymorphic forms"}, {"compound": "tartrate", "thermal stability and polymorphic forms": "suitable thermal stability and few or single polymorphic forms"}]}]}
